Test results from ChEMBL document CHEMBL1201862, “PubChem BioAssay data set” (2004).
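Assay format: 96-well plates, 48-hour exposure. The concentration for 50% growth inhibition is given as GI50.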 Activity calls are given as the source filed them. No stated cut-off is given here; in the data, active = GI50 up to about 1.1 µM and inactive = higher.

What was measured:
Assay in all cases: NCI anticancer screen, dose series, 48 h
ACHN = system: ACHN
DU-145 = system: DU-145
EKVX = system: EKVX
HCC 2998 = system: HCC 2998
K562 = system: K562
KM12 = system: KM12
MCF7 = system: MCF7
MDA-MB-231 = system: MDA-MB-231
MDA-N = system: MDA-N
MOLT-4 = system: MOLT-4
NCI-H226 = system: NCI-H226
NCI-H23 = system: NCI-H23
PC-3 = system: PC-3
SF-539 = system: SF-539
SK-MEL-28 = system: SK-MEL-28
SK-MEL-2 = system: SK-MEL-2
SK-MEL-5 = system: SK-MEL-5
SN12C = system: SN12C
SR = system: SR
U-251 = system: U-251

Measured: GI50

C[C@]12C[C@@H](OC(=O)[C@]1(C)O)[C@@H]([C@]1(O)CC[C@H]3[C@@H]4C[C@H]5O[C@]56C[C@H]5O[C@H]5C(=O)[C@]6(C)[C@H]4CC[C@@]31C)C2
inactive: ACHN > 50 µM | DU-145 > 50 µM | EKVX > 50 µM | HCC 2998 > 50 µM | K562 > 50 µM | KM12 > 50 µM | MCF7 > 50 µM | MDA-MB-231 > 50 µM | MDA-N > 50 µM | MOLT-4 > 50 µM | NCI-H226 > 50 µM | NCI-H23 > 50 µM | PC-3 > 50 µM | SF-539 > 50 µM | SK-MEL-28 > 50 µM | SK-MEL-2 > 50 µM | SK-MEL-5 > 50 µM | SN12C > 50 µM | SR 14.7 µM | U-251 > 50 µM

O=C1C=CC(O)(C#CCO)C=C1
inactive: ACHN 13.2 µM | DU-145 16 µM | EKVX 18.4 µM | HCC 2998 17.5 µM | K562 2.92 µM | KM12 17.5 µM | MCF7 4.33 µM | MDA-MB-231 18.7 µM | MDA-N 8.57 µM | MOLT-4 10.3 µM | NCI-H226 13.4 µM | NCI-H23 16.9 µM | PC-3 16.9 µM | SF-539 17 µM | SK-MEL-28 12.9 µM | SK-MEL-2 17.4 µM | SK-MEL-5 24.3 µM | SN12C 15.9 µM | SR 2.98 µM | U-251 11.6 µM

O=c1c2c(F)c(F)c(F)c(F)c2sc2nccn12
inactive: ACHN 16.4 µM | DU-145 19.9 µM | EKVX 24.7 µM | HCC 2998 17.5 µM | K562 6.55 µM | KM12 17.1 µM | MCF7 17.4 µM | MDA-MB-231 20.3 µM | MDA-N 14.4 µM | MOLT-4 3.01 µM | NCI-H226 25.2 µM | NCI-H23 15.5 µM | PC-3 18.4 µM | SF-539 17.5 µM | SK-MEL-28 23.4 µM | SK-MEL-2 19.1 µM | SK-MEL-5 18.5 µM | SN12C 18.5 µM | SR 3.27 µM | U-251 14.9 µM

Cc1cc2nc3c(N)nn(CCN(C)C)c3nc2cc1C
inactive: ACHN 28.4 µM | DU-145 40.8 µM | EKVX 58.7 µM | HCC 2998 51.6 µM | K562 83.4 µM | KM12 45.5 µM | MCF7 29.2 µM | MDA-MB-231 33.8 µM | MDA-N 50.8 µM | MOLT-4 41.8 µM | NCI-H226 11.2 µM | NCI-H23 38.2 µM | PC-3 44.3 µM | SF-539 28.1 µM | SK-MEL-28 53.7 µM | SK-MEL-2 39 µM | SK-MEL-5 24.6 µM | SN12C 36.7 µM | SR > 100 µM | U-251 33.1 µM

C#C[C@]1(O)CC[C@H]2[C@@H]3CCC4=C/C(=N\OCCN5CCCCC5)CC[C@]4(C)[C@H]3CC[C@@]21C
inactive: ACHN 8.3 µM | DU-145 8.51 µM | EKVX 8.15 µM | HCC 2998 12.8 µM | K562 1.65 µM | KM12 3.44 µM | MCF7 3.34 µM | MDA-MB-231 13.9 µM | MDA-N 1.66 µM | MOLT-4 3.9 µM | NCI-H226 17.2 µM | NCI-H23 3.83 µM | PC-3 3.39 µM | SF-539 4.11 µM | SK-MEL-28 8.13 µM | SK-MEL-2 2.77 µM | SK-MEL-5 2.23 µM | SN12C 6.89 µM | SR 1.48 µM | U-251 9.68 µM

NC1CNC(=O)c2c(Cl)sc(Cl)c21 (centres undefined)
inactive: ACHN > 100 µM | DU-145 > 100 µM | EKVX > 100 µM | HCC 2998 > 100 µM | K562 > 100 µM | KM12 > 100 µM | MCF7 > 100 µM | MDA-MB-231 > 100 µM | MDA-N > 100 µM | MOLT-4 78.5 µM | NCI-H226 > 100 µM | NCI-H23 > 100 µM | PC-3 > 100 µM | SF-539 > 100 µM | SK-MEL-28 > 100 µM | SK-MEL-2 > 100 µM | SN12C > 100 µM | SR 41.4 µM | U-251 > 100 µM

CC(=O)C1(C(=O)C(=[N+]=[N-])S(=O)(=O)c2ccccc2)CC1
inactive: ACHN > 100 µM | DU-145 > 100 µM | EKVX > 100 µM | HCC 2998 > 100 µM | K562 80.4 µM | KM12 > 100 µM | MCF7 > 100 µM | MDA-MB-231 > 100 µM | MDA-N > 100 µM | MOLT-4 83.8 µM | NCI-H226 > 100 µM | NCI-H23 > 100 µM | PC-3 > 100 µM | SF-539 > 100 µM | SK-MEL-28 > 100 µM | SK-MEL-2 > 100 µM | SK-MEL-5 > 100 µM | SN12C > 100 µM | SR > 100 µM | U-251 > 100 µM

CC(C)(C)OC(=O)NCC(=O)N(CCc1ccc(Cl)c(Cl)c1)CCN1CCCC1
inactive: ACHN 19.5 µM | DU-145 16.9 µM | EKVX 21.7 µM | HCC 2998 5.14 µM | K562 8.11 µM | KM12 16.3 µM | MCF7 16.4 µM | MDA-MB-231 13.1 µM | MDA-N 14.3 µM | MOLT-4 8.41 µM | NCI-H226 15 µM | NCI-H23 17.1 µM | PC-3 15.3 µM | SF-539 16.8 µM | SK-MEL-28 13 µM | SK-MEL-2 16.9 µM | SK-MEL-5 13.7 µM | SN12C 17.3 µM | SR 14.5 µM | U-251 15.2 µM

C=C(C)C(O)C(O)C[C@@H](C)C1CC[C@]23C[C@]12CCC1[C@@]2(C)CCC(OC(C)=O)C(C)(C)C2CC(OC2OC(CO)C(O)C(O)C2O)[C@]13C (some centres undefined)
inactive: ACHN 31.6 µM | DU-145 21.2 µM | EKVX 42.2 µM | HCC 2998 15.7 µM | K562 20.1 µM | KM12 17.7 µM | MCF7 17 µM | MDA-MB-231 15 µM | MDA-N 17.3 µM | MOLT-4 18.5 µM | NCI-H226 20.6 µM | NCI-H23 19.2 µM | PC-3 18.4 µM | SF-539 14.6 µM | SK-MEL-28 22.5 µM | SK-MEL-2 16.6 µM | SK-MEL-5 18.9 µM | SN12C 16.8 µM | SR 18.7 µM | U-251 15.7 µM

NS(=O)(=O)c1cc(C(=O)O)c(Cl)c([N+](=O)[O-])c1Cl
inactive: ACHN > 100 µM | DU-145 > 100 µM | EKVX > 100 µM | HCC 2998 > 100 µM | K562 > 100 µM | KM12 > 100 µM | MCF7 > 100 µM | MDA-MB-231 > 100 µM | MDA-N > 100 µM | MOLT-4 > 100 µM | NCI-H226 > 100 µM | NCI-H23 > 100 µM | PC-3 > 100 µM | SF-539 > 100 µM | SK-MEL-28 > 100 µM | SK-MEL-2 > 100 µM | SK-MEL-5 > 100 µM | SN12C > 100 µM | SR > 100 µM | U-251 > 100 µM
